± gives the expanded uncertainty stated by the source.
How the values were obtained:
[1] = 101.3 kPa, Liquid
[2] = xn = mol fraction of the nth substance listed; conditions: 101.3 kPa, Liquid

CC(C)CCl [1-chloro-2-methylpropane]
[1]
Conditions | kinematic viscosity [m2/s] | mass density [kg/m3]
298.15 K | 4.92e-07 ± 1.8e-08 | 870.93 ± 0.49
313.15 K | 4.29e-07 ± 1.6e-08 | 853.51 ± 0.49

CC(C)CCl [1-chloro-2-methylpropane] + CC1CCCO1
[2]
Conditions | kinematic viscosity, 298.15 K [m2/s] | kinematic viscosity, 313.15 K [m2/s] | mass density, 298.15 K [kg/m3] | mass density, 313.15 K [kg/m3]
x1 = 0.0484 | 5.56e-07 ± 2e-08 | 4.88e-07 ± 1.8e-08 | 850.43 ± 0.49 | 834.97 ± 0.49
x1 = 0.0999 | 5.52e-07 ± 2e-08 | 4.85e-07 ± 1.8e-08 | 852.07 ± 0.49 | 836.22 ± 0.49
x1 = 0.1962 | 5.44e-07 ± 1.9e-08 | 4.78e-07 ± 1.8e-08 | 854.44 ± 0.49 | 838.53 ± 0.49
x1 = 0.3105 | 5.35e-07 ± 1.9e-08 | 4.7e-07 ± 1.7e-08 | 857.3 ± 0.49 | 841.23 ± 0.49
x1 = 0.4006 | 5.29e-07 ± 1.9e-08 | 4.65e-07 ± 1.7e-08 | 859.25 ± 0.49 | 843.09 ± 0.49
x1 = 0.4775 | 5.23e-07 ± 1.9e-08 | 4.6e-07 ± 1.7e-08 | 860.99 ± 0.49 | 844.5 ± 0.49
x1 = 0.6006 | 5.15e-07 ± 1.9e-08 | 4.52e-07 ± 1.7e-08 | 863.58 ± 0.49 | 846.94 ± 0.49
x1 = 0.7031 | 5.08e-07 ± 1.8e-08 | 4.46e-07 ± 1.7e-08 | 865.6 ± 0.49 | 848.88 ± 0.49
x1 = 0.8026 | 5.03e-07 ± 1.8e-08 | 4.4e-07 ± 1.6e-08 | 867.49 ± 0.49 | 850.49 ± 0.49
x1 = 0.9059 | 4.97e-07 ± 1.8e-08 | 4.34e-07 ± 1.6e-08 | 869.22 ± 0.49 | 852.11 ± 0.49
x1 = 0.9506 | 4.95e-07 ± 1.8e-08 | 4.32e-07 ± 1.6e-08 | 870.2 ± 0.49 | 852.87 ± 0.49
x1 = 1 | 4.92e-07 ± 1.8e-08 | 4.29e-07 ± 1.6e-08 | 870.93 ± 0.49 | 853.51 ± 0.49

CCCCCl [1-chlorobutane]
[1]
Conditions | kinematic viscosity [m2/s] | mass density [kg/m3]
298.15 K | 4.78e-07 ± 1.7e-08 | 880.62 ± 0.3
313.15 K | 4.21e-07 ± 1.6e-08 | 863.86 ± 0.31

CCCCCl [1-chlorobutane] + CC1CCCO1
[2], x1 = 1
Conditions | kinematic viscosity [m2/s] | mass density [kg/m3]
298.15 K | 4.78e-07 ± 1.7e-08 | 880.62 ± 0.3
313.15 K | 4.21e-07 ± 1.6e-08 | 863.86 ± 0.31

CC(C)(C)Cl [2-chloro-2-methylpropane]
[1], 298.15 K
Conditions | kinematic viscosity [m2/s] | mass density [kg/m3]
– | 5.66e-07 ± 1e-08 | 835.75 ± 0.49

CC(C)(C)Cl [2-chloro-2-methylpropane] + CC1CCCO1
[2], 298.15 K
Conditions | kinematic viscosity [m2/s] | mass density [kg/m3]
x1 = 0.0481 | 5.59e-07 ± 1e-08 | 849.09 ± 0.49
x1 = 0.0972 | 5.57e-07 ± 1e-08 | 848.97 ± 0.49
x1 = 0.196 | 5.55e-07 ± 1e-08 | 848.4 ± 0.49
x1 = 0.2907 | 5.55e-07 ± 1e-08 | 847.61 ± 0.49
x1 = 0.3874 | 5.54e-07 ± 1e-08 | 846.54 ± 0.49
x1 = 0.4878 | 5.54e-07 ± 1e-08 | 845.21 ± 0.49
x1 = 0.5888 | 5.55e-07 ± 1e-08 | 843.72 ± 0.49
x1 = 0.7 | 5.57e-07 ± 1e-08 | 842.04 ± 0.49
x1 = 0.7912 | 5.59e-07 ± 1e-08 | 840.61 ± 0.49
x1 = 0.8945 | 5.62e-07 ± 1e-08 | 838.65 ± 0.49
x1 = 0.9474 | 5.63e-07 ± 1e-08 | 837.24 ± 0.49
x1 = 1 | 5.66e-07 ± 1e-08 | 835.75 ± 0.49

CCC(C)Cl (stereo not given) [2-chlorobutane]
[1]
Conditions | kinematic viscosity [m2/s] | mass density [kg/m3]
298.15 K | 4.54e-07 ± 1.7e-08 | 867.31 ± 0.49
313.15 K | 3.97e-07 ± 1.5e-08 | 850.23 ± 0.49

— the NIST ThermoML archive (doi:10.1021/je030167i)
